Test results reported in patent US20100267561A1, “HERBICIDAL PYRIDAZINONE DERIVATIVES” (priority 2007, published 2010).

Key:
Assay type in all cases: in vivo
[1] = test system: velvetleaf (Abutilon theophrasti); assay: Test A pre-/postemergence plant response
Method in brief: (§1)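 Soil: loam blended with sand. Formulation: non-phytotoxic solvent mixture plus surfactant, applied as preemergence directed soil spray and as postemergence spray. Scoring: visual, 0 no effect to 100 complete control, roughly 10 days post-treatment in greenhouse.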

[2] = test system: wheat (Triticum aestivum); assay: Test A pre-/postemergence plant response
Method in brief: as §1

[3] = test system: giant foxtail (Setaria faberi); assay: Test A pre-/postemergence plant response
Method in brief: as §1

[4] = test system: barnyardgrass (Echinochloa crus-galli); assay: Test A pre-/postemergence plant response
Method in brief: as §1

[5] = test system: large crabgrass (Digitaria sanguinalis); assay: Test A pre-/postemergence plant response
Method in brief: as §1

[6] = test system: morningglory (Ipomoea coccinea); assay: Test A pre-/postemergence plant response
Method in brief: as §1

[7] = test system: corn (Zea mays); assay: Test A pre-/postemergence plant response
Method in brief: as §1

[8] = test system: windgrass (Apera spica-venti); assay: Test B postemergence plant response; conditions: for Windgrass plant response rating: 8 g ai/ha, postemergence, 0-100 scale; for Plant response rating, Windgrass: Postemergence
Method in brief: (§2)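 Emerged plants, 1- to 4-leaf stage, treated; greenhouse 13–15 d; eye-scored vs untreated controls (0–100 scale).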

[9] = test system: chickweed (Stellaria media); assay: Test B postemergence plant response; conditions: for Chickweed plant response rating: 8 g ai/ha, postemergence, 0-100 scale; for Plant response rating, Chickweed: Postemergence
Method in brief: as §2

[10] = test system: winter barley (Hordeum vulgare); assay: Test B postemergence plant response; conditions: for Barley plant response rating: 8 g ai/ha, postemergence, 0-100 scale; for Plant response rating, Barley: Postemergence, scale 0 to 100, 0 no effect, 100 complete control
Method in brief: as §2

[11] = test system: canarygrass (Phalaris minor); assay: Test B postemergence plant response; conditions: for Canarygrass plant response rating: 8 g ai/ha, postemergence, 0-100 scale; for Plant response rating, Canarygrass: Postemergence
Method in brief: as §2

[12] = test system: rice (Oryza sativa); assay: Test B flooded paddy test plant response
Method in brief: (§3)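 Compounds were added directly to paddy water over 2-leaf-stage plants in pots flooded 3 cm above soil, water depth maintained. Visual injury scored against controls after 13 to 15 days in greenhouse, 0 (none) to 100 (complete control); dash indicates no result.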

[13] = test system: umbrella sedge (Cyperus difformis); assay: Test B flooded paddy test plant response
Method in brief: as §3

[14] = test system: barnyardgrass (Echinochloa crus-galli); assay: Test B flooded paddy test plant response
Method in brief: as §3

[15] = Postemergence, 31 g ai/ha, 0 to 100 scale, 0 no effect, 100 complete control
[16] = Postemergence, 125 g ai/ha, 0 to 100 scale, 0 no effect, 100 complete control
[17] = Preemergence, 31 g ai/ha, 0 to 100 scale, 0 is no effect, 100 is complete control
[18] = Preemergence, 125 g ai/ha, 0 to 100 scale (0 no effect, 100 complete control)
[19] = 62 g ai/ha, scale 0 to 100, 0 no effect, 100 complete control
[20] = 31 g ai/ha, scale 0 to 100, 0 no effect, 100 complete control
[21] = Flood (flooded paddy test), 62 g ai/ha, scale 0 to 100, 0 no effect, 100 complete control
[22] = Flood (flooded paddy test), 125 g ai/ha, scale 0 to 100, 0 no effect, 100 complete control
[23] = Flood, 31 g ai/ha, scale 0 to 100
[24] = Flood (flooded paddy test), 250 g ai/ha, scale 0 to 100, 0 no effect, 100 complete control

Compound: Cc1cc(-c2ccc(Cl)cc2)nn1-c1c(OS(=O)(=O)c2ccccc2)cnn(C)c1=O [Compound 35]
- Plant response rating, Velvetleaf [1, 15]: 0
- Plant response rating, Velvetleaf [1, 16]: 0
- Plant response rating, Velvetleaf [1, 17]: 0
- Plant response rating, Velvetleaf [1, 18]: 0
- Plant response rating, Wheat [2, 15]: 0
- Plant response rating, Wheat [2, 16]: 60
- Plant response rating, Wheat [2, 17]: 20
- Plant response rating, Wheat [2, 18]: 80
- Plant response rating, Foxtail, Giant [3, 15]: 60
- Plant response rating, Foxtail, Giant [3, 16]: 90
- Plant response rating, Foxtail, Giant [3, 17]: 100
- Plant response rating, Foxtail, Giant [3, 18]: 100
- Plant response rating, Barnyardgrass [4, 15]: 60
- Plant response rating, Barnyardgrass [4, 16]: 90
- Plant response rating, Barnyardgrass [4, 17]: 80
- Plant response rating, Barnyardgrass [4, 18]: 100
- Plant response rating, Crabgrass, Large [5, 15]: 40
- Plant response rating, Crabgrass, Large [5, 16]: 90
- Plant response rating, Crabgrass, Large [5, 17]: 90
- Plant response rating, Crabgrass, Large [5, 18]: 100
- Plant response rating, Morningglory [6, 15]: 0
- Plant response rating, Morningglory [6, 16]: 0
- Plant response rating, Morningglory [6, 17]: 0
- Plant response rating, Morningglory [6, 18]: 0
- Plant response rating, Corn [7, 15]: 0
- Plant response rating, Corn [7, 16]: 60
- Plant response rating, Corn [7, 17]: 0
- Plant response rating, Corn [7, 18]: 80
- Windgrass plant response rating [8]: 0
- Plant response rating, Windgrass ([8]; 16 g ai/ha, scale 0 to 100): 0
- Plant response rating, Windgrass [8, 19]: 40
- Chickweed plant response rating [9]: 0
- Plant response rating, Chickweed ([9]; 16 g ai/ha, scale 0 to 100): 0
- Plant response rating, Chickweed [9, 20]: 0
- Plant response rating, Chickweed [9, 19]: 0
- Barley plant response rating [10]: 0
- Plant response rating, Barley ([10]; 16 g ai/ha): 0
- Plant response rating, Barley ([10]; 31 g ai/ha): 5
- Plant response rating, Barley ([10]; 62 g ai/ha): 35
- Canarygrass plant response rating [11]: 0
- Plant response rating, Canarygrass ([11]; 16 g ai/ha, scale 0 to 100): 0
- Plant response rating, Canarygrass [11, 20]: 5
- Plant response rating, Canarygrass [11, 19]: 45
- Plant response rating, Rice [12, 21]: 0
- Plant response rating, Rice [12, 22]: 0
- Plant response rating, Rice [12, 23]: 0
- Plant response rating, Sedge, Umbrella [13, 21]: 0
- Plant response rating, Sedge, Umbrella [13, 22]: 0
- Plant response rating, Sedge, Umbrella [13, 23]: 0
- Plant response rating, Barnyardgrass [14, 21]: 0
- Plant response rating, Barnyardgrass [14, 22]: 0
- Plant response rating, Barnyardgrass [14, 23]: 0

Compound: Cc1cc(-c2ccc(Cl)cc2)nn1-c1c(OC(=O)CC(C)C)cnn(C)c1=O [Compound 37]
- Plant response rating, Velvetleaf [1, 15]: 0
- Plant response rating, Velvetleaf [1, 16]: 0
- Plant response rating, Velvetleaf [1, 17]: 0
- Plant response rating, Velvetleaf [1, 18]: 0
- Plant response rating, Wheat [2, 15]: 20
- Plant response rating, Wheat [2, 16]: 70
- Plant response rating, Wheat [2, 17]: 30
- Plant response rating, Wheat [2, 18]: 90
- Plant response rating, Foxtail, Giant [3, 15]: 80
- Plant response rating, Foxtail, Giant [3, 16]: 100
- Plant response rating, Foxtail, Giant [3, 17]: 100
- Plant response rating, Foxtail, Giant [3, 18]: 100
- Plant response rating, Barnyardgrass [4, 15]: 90
- Plant response rating, Barnyardgrass [4, 16]: 100
- Plant response rating, Barnyardgrass [4, 17]: 90
- Plant response rating, Barnyardgrass [4, 18]: 100
- Plant response rating, Crabgrass, Large [5, 15]: 50
- Plant response rating, Crabgrass, Large [5, 16]: 90
- Plant response rating, Crabgrass, Large [5, 17]: 80
- Plant response rating, Crabgrass, Large [5, 18]: 100
- Plant response rating, Morningglory [6, 15]: 0
- Plant response rating, Morningglory [6, 16]: 0
- Plant response rating, Morningglory [6, 17]: 0
- Plant response rating, Morningglory [6, 18]: 0
- Plant response rating, Corn [7, 15]: 60
- Plant response rating, Corn [7, 16]: 100
- Plant response rating, Corn [7, 17]: 30
- Plant response rating, Corn [7, 18]: 90
- Windgrass plant response rating [8]: 10
- Plant response rating, Windgrass ([8]; 16 g ai/ha, scale 0 to 100): 60
- Plant response rating, Windgrass [8, 19]: 85
- Chickweed plant response rating [9]: 0
- Plant response rating, Chickweed ([9]; 16 g ai/ha, scale 0 to 100): 0
- Plant response rating, Chickweed [9, 20]: 0
- Plant response rating, Chickweed [9, 19]: 0
- Barley plant response rating [10]: 0
- Plant response rating, Barley ([10]; 16 g ai/ha): 0
- Plant response rating, Barley ([10]; 31 g ai/ha): 5
- Plant response rating, Barley ([10]; 62 g ai/ha): 15
- Canarygrass plant response rating [11]: 0
- Plant response rating, Canarygrass ([11]; 16 g ai/ha, scale 0 to 100): 10
- Plant response rating, Canarygrass [11, 20]: 10
- Plant response rating, Canarygrass [11, 19]: 40
- Plant response rating, Rice [12, 21]: 70
- Plant response rating, Rice [12, 22]: 80
- Plant response rating, Rice [12, 24]: 90
- Plant response rating, Rice [12, 23]: 0
- Plant response rating, Sedge, Umbrella [13, 21]: 0
- Plant response rating, Sedge, Umbrella [13, 22]: 0
- Plant response rating, Sedge, Umbrella [13, 24]: 60
- Plant response rating, Barnyardgrass [14, 21]: 60
- Plant response rating, Barnyardgrass [14, 22]: 100
- Plant response rating, Barnyardgrass [14, 24]: 100
- Plant response rating, Barnyardgrass [14, 23]: 30

Compound: CCOC(=O)Oc1cnn(C)c(=O)c1-n1nc(-c2ccc(Cl)cc2)cc1C [Compound 53]
- Plant response rating, Velvetleaf [1, 15]: 0
- Plant response rating, Velvetleaf [1, 16]: 0
- Plant response rating, Velvetleaf [1, 17]: 0
- Plant response rating, Velvetleaf [1, 18]: 0
- Plant response rating, Wheat [2, 15]: 20
- Plant response rating, Wheat [2, 16]: 70
- Plant response rating, Wheat [2, 17]: 50
- Plant response rating, Wheat [2, 18]: 90
- Plant response rating, Foxtail, Giant [3, 15]: 90
- Plant response rating, Foxtail, Giant [3, 16]: 100
- Plant response rating, Foxtail, Giant [3, 17]: 100
- Plant response rating, Foxtail, Giant [3, 18]: 100
- Plant response rating, Barnyardgrass [4, 15]: 90
- Plant response rating, Barnyardgrass [4, 16]: 100
- Plant response rating, Barnyardgrass [4, 17]: 100
- Plant response rating, Barnyardgrass [4, 18]: 100
- Plant response rating, Crabgrass, Large [5, 15]: 80
- Plant response rating, Crabgrass, Large [5, 16]: 100
- Plant response rating, Crabgrass, Large [5, 17]: 90
- Plant response rating, Crabgrass, Large [5, 18]: 100
- Plant response rating, Morningglory [6, 15]: 0
- Plant response rating, Morningglory [6, 16]: 20
- Plant response rating, Morningglory [6, 17]: 0
- Plant response rating, Morningglory [6, 18]: 0
- Plant response rating, Corn [7, 15]: 80
- Plant response rating, Corn [7, 16]: 90
- Plant response rating, Corn [7, 17]: 0
- Plant response rating, Corn [7, 18]: 70
- Windgrass plant response rating [8]: 0
- Plant response rating, Windgrass ([8]; 16 g ai/ha, scale 0 to 100): 20
- Plant response rating, Windgrass ([8]; 31 g ai/ha, scale 0 to 100): 40
- Plant response rating, Windgrass [8, 19]: 60
- Chickweed plant response rating [9]: 0
- Plant response rating, Chickweed ([9]; 16 g ai/ha, scale 0 to 100): 0
- Plant response rating, Chickweed ([9]; 31 g ai/ha, scale 0 to 100): 0
- Plant response rating, Chickweed [9, 19]: 0
- Barley plant response rating [10]: 0
- Plant response rating, Barley ([10]; 16 g ai/ha): 0
- Plant response rating, Barley ([10]; 31 g ai/ha): 0
- Plant response rating, Barley ([10]; 62 g ai/ha): 0
- Canarygrass plant response rating [11]: 0
- Plant response rating, Canarygrass ([11]; 16 g ai/ha, scale 0 to 100): 0
- Plant response rating, Canarygrass ([11]; 31 g ai/ha, scale 0 to 100): 0
- Plant response rating, Canarygrass [11, 19]: 0
- Plant response rating, Rice [12, 21]: 0
- Plant response rating, Rice [12, 22]: 0
- Plant response rating, Rice [12, 24]: 30
- Plant response rating, Rice [12, 23]: 0
- Plant response rating, Sedge, Umbrella [13, 21]: 0
- Plant response rating, Sedge, Umbrella [13, 22]: 40
- Plant response rating, Sedge, Umbrella [13, 24]: 70
- Plant response rating, Sedge, Umbrella [13, 23]: 0
- Plant response rating, Barnyardgrass [14, 21]: 0
- Plant response rating, Barnyardgrass [14, 22]: 0
- Plant response rating, Barnyardgrass [14, 24]: 40
- Plant response rating, Barnyardgrass [14, 23]: 0
